This note sets out measurements from the NIST ThermoML archive (doi:10.1021/je3012452).

± gives the expanded uncertainty stated by the source.

For data set [1] the following is noted: DTA.
The nature of data set [2]: Molar enthalpy of transition or fusion. The following applies: DSC.

As for `CCCC(CCC)C(N)=O` [2-propylpentanamide], the Normal melting temperature in data set [1] (Crystal 1) was found to be 125.1 ± 0.5 °C. In addition, the Triple point temperature in data set [1] (Crystal 2) worked out at 360.6 ± 0.9 K. Besides, the “Molar enthalpy of transition or fusion” value in data set [2] (Crystal 1) was determined as 5.38 ± 0.311 kcal/mol; in data set [2] (Crystal 2), 0.418 ± 0.105 kcal/mol.

As to `CCCCCC(N)=O` [hexanamide], in data set [1] (Crystal 1), the Normal melting temperature was found to be 99.2 ± 2.8 °C. Also, in data set [1] (Crystal 2), the Triple point temperature is recorded as 306.1 ± 0.5 K. In addition, the figures for the “Molar enthalpy of transition or fusion” value in data set [2] (Crystal 1) and in data set [2] (Crystal 2) were 4.02 ± 0.167 kcal/mol and 1.22 ± 0.0717 kcal/mol, respectively.

Consider `CC(C)C(N)=O` [2-methylpropanamide], for which the Normal melting temperature in data set [1] (Crystal) came to 128.5 ± 0.9 °C. In addition, the “Molar enthalpy of transition or fusion” value in data set [2] (Crystal) worked out at 4.76 ± 0.12 kcal/mol.

Consider `CCCCCCC(N)=O` [heptanamide], for which, in data set [1] (Crystal 1), the Normal melting temperature was 95.5 ± 1.1 °C. The Triple point temperature is listed as 356.1 ± 0.5 K in data set [1] (Crystal 2) and 319 ± 1.6 K in data set [1] (Crystal 3). Further, the “Molar enthalpy of transition or fusion” value is 3.87 ± 0.12 kcal/mol in data set [2] (Crystal 1), 0.813 ± 0.0478 kcal/mol in data set [2] (Crystal 2) and 1.79 ± 0.143 kcal/mol in data set [2] (Crystal 3).
